Values quoted from earlier work, collected in patent US10568966B2, “Formulation for topical wound treatment” (AHMET KILIC, priority 2014, dated 2020).

What was measured:
[1] = CLP-Regulation (EC) No 1272/2008

Compound | LD50 Acute oral (Rat) | GHS Classification [1]
C=CCCCCCCCCC(=O)NCCC[N+](C)(C)CC(=O)[O-] [Rewoteric ® AM B U 185, Undecylenamidopropyl Betaine] | >2.000 mg/kg | 
Cocamidopropyl Betaine [CRODATERIC ™ CAB 30-LQ-(RB)] |  | Eye Irrit. 2; H319
Lauramidopropyl betaine [CRODATERIC ™ CAB 30-LQ-(TH)] | >4.900 mg/kg | 
